Reference: patent publication US20090074869A1, “PHARMACEUTICAL FORMULATIONS” (Schering Corporation, priority 2003, published 2009)

Tests used:
PDE V = PDE V (Homo sapiens, UniProt O76074); experiment: PDE V inhibition; type: biochemical
[1] = solubility in water and wettability of the crystalline form; type: physicochemical
[2] = absorption and bioavailability tests in animals; type: in vivo

Q: With `CCn1c(=O)c2c(nc(N[C@@H]3CCC[C@H]3O)n2Cc2ccc(OC)c(Br)c2)n(CCO)c1=O` [7-[(3-Bromo-4-methoxyphenyl)methyl]-1-ethyl-3,7-dihydro-8-[[(1R,2R)-2-hydroxycyclopentyl]amino]-3-(2-hydroxyethyl)-1H-purine-2,6-dione] as the molecule, how does the “effectiveness as a PDE V inhibitor” value (PDE V) read?
A: Its value is “particularly effective”.

Q: What about the “specificity for PDE isozyme” value (PDE V) of the same molecule?
A: The value was “specificity for the PDE V isozyme”.

Q: And the solubility in water [1]?
A: The solubility in water was “poor”.

Q: And the wettability ([1]; crystalline form)?
A: Its wettability is “poor”.

Q: What about the “absorption from the gastrointestinal tract” value ([2]; in vivo) of the same molecule?
A: The value was “slow”.

Q: What about the bioavailability ([2]; tests conducted so far in animals) of the same molecule?
A: The bioavailability was “low”.
